In patent publication US20100279937A1, “Method of Inhibiting Angiogenesis, Tumorigenesis and Cathepsin Activity” (priority 2006, published 2010):

Tests used:
cathepsin B = target: T1, cathepsin B (Homo sapiens, UniProt P07858); assay: Secreted cathepsin B activity in U87MG conditioned media; format: biochemical; details: 10 μM CA074-ME; overnight incubation
T1 construct: Levels of cathepsin B activity were also measured in U87MG CM alone or pre-incubated; endogenous in cells; host or cells: U87MG (ATCC), 3-day serum-free conditioned medium
Experimental: The human glioma cell line U87MG was established from surgically removed type III glioma/glioblastoma and obtained from ATCC. Cells (5×10^4 cells/ml) were plated in poly-L-lysine pre-coated dishes and grown at 37° C. in D-MEM (DME) supplemented with 100 U/ml penicillin, 100 μg/ml streptomycin and 10% heat-inactivated fetal bovine serum (FBS) (HyClone, Logan, Utah) in humidified atmosphere of 5% CO2/95% air until reached 80% confluence. Then, media were removed and the cells incubated for 3 days in serum-free DME to obtain conditioned media (CM). Conditioned media were collected and filtered (Millex-GV sterilizing filter membrane, 0.22 μm). Cells were then harvested for molecular and biochemical assays. […]

U87MG cells = assay: U87MG growth in semi-solid (soft) agar; format: cell-based, human; details: 10 μM CA074-ME; Alamar Blue
Experimental: […] Approximately 15,000 cells±treatment were resuspended in 150 μl medium containing 0.3% agar, and seeded onto a well of a 24-well plate previously layered with 250 μl 0.6% agar. The solidified cell layer was covered with 50 μl DME±treatment which was replaced every three days over a 21 day period. Phase contrast images (6 fields/well) were captured using a digital video camera (Olympus U-CMT) and analyzed with Northern Eclipse v.5.0 software. Color images were transformed to grey scale, thresholded, and then converted to binary images. Number and area of colonies per field were calculated. In order to measure cell viability, at the end of the experiment, 40 μl alamar blue was added to each well and fluorescence readings were performed every 10 min for a period of 180 min. Experiments were repeated 2-3 times in triplicates.

SMILES: CCCNC(=O)[C@H]1O[C@@H]1C(=O)N[C@H](C(=O)N1CCC[C@H]1C(=O)OC)[C@@H](C)CC [CA074-ME, reference compound]
- inhibition of secreted cathepsin B activity in U87MG CM (cathepsin B): ~40%
- inhibition of U87MG colony formation in soft agar (efficacy) (U87MG cells): ~70%
